Assay [1] has as its system Phytophthora infestans. In words: microbe, parasite or virus in culture. Format: cell-based. The note with it: in Secale cereale, 168 h, read-out: control compared to the untreated check.
Assay [2] relates to Phytophthora infestans. Briefly: whole plant or invertebrate. The note with it: in Solanum lycopersicum, 24 h, read-out: control compared to the untreated check. It counts as in vivo, Phytophthora infestans on tomato plants.
A further assay relates to Plasmopara viticola. In words: Example B: Plasmopara viticola test in grape (greenhouse, preventive). The note with it: 24 h, grape seedlings sprayed one day before inoculation, disease severity rating, read-out: control compared to the untreated check. It counts as in vivo. The procedure: Example B: Plasmopara viticola Test in Grape
The compound were dissolved in 2% DMSO/Acetone & then mixed with water containing emulsifier to a calibrated spray volume of 50 mL. The spray solutions were poured into spray bottles for further applications.
To test the preventive activity of compounds, 5 week old healthy grape seedlings, cv. Thompson seedless, raised in the greenhouse, were sprayed with the active compound preparation at the stated application rates inside spray cabinets using hallow cone nozzles. One day after treatment, the plants were inoculated with an inoculum suspension (sterile water) containing 6×10^4 Plasmopara viticola inoculum. The inoculated plants were then kept in a greenhouse chamber at 18-21° C. temperature and 95-100% relative humidity for disease expression.
A visual assessment of the performance of the compound was carried out by rating the disease severity (0-100% scale) on treated plants 3, 7 and 10 days after application. Efficacy (% control) of the compound was calculated by comparing the disease rating in the treatment with the one of the untreated control. The compounds were also assessed for their plant compatibility by recording symptoms like necrosis, chlorosis & stunting

`O=C(COc1nccnc1C(F)(F)F)N1CCC(c2nc(C3=NOC(c4c(F)cccc4Cl)C3)cs2)CC1` (centres unmarked) [Compound 1, 1-(4-(4-(5-(2-chloro-6-fluorophenyl)-4,5-dihydroisoxazol-3-yl)thiazol-2-yl)piperidin-1-yl)-2-((3-(trifluoromethyl)pyrazin-2-yl)oxy)ethan-1-one]: the inhibition of growth at 30 ppm in the assay with Phytophthora infestans [1] was at least 70%. Further, the pest or weed control at 50 ppm in the assay with Phytophthora infestans [2] and in the assay with Plasmopara viticola was at least 70% each time.

Consider `O=C(COc1nccnc1C(F)(F)F)N1CCC(c2nc(C3=NOC(c4c(Cl)cc(Cl)cc4Cl)C3)cs2)CC1` (centres unmarked) [Compound 2, 1-(4-(4-(5-(2,4,6-trichlorophenyl)-4,5-dihydroisoxazol-3-yl)thiazol-2-yl)piperidin-1-yl)-2-((3-(trifluoromethyl)pyrazin-2-yl)oxy)ethan-1-one], for which, in the assay on Phytophthora infestans [1], the inhibition of growth at 30 ppm is at least 70%. Moreover, the pest or weed control at 50 ppm in the assay on Phytophthora infestans [2] and with Plasmopara viticola was at least 70% each time.

Regarding `O=C(COc1nccnc1C(F)(F)F)N1CCC(c2nc(C3=NOC(c4c(Cl)cccc4Cl)C3)cs2)CC1` (centres unmarked) [Compound 3, 1-(4-(4-(5-(2,6-dichlorophenyl)-4,5-dihydroisoxazol-3-yl)thiazol-2-yl)piperidin-1-yl)-2-((3-(trifluoromethyl)pyrazin-2-yl)oxy)ethan-1-one], the inhibition of growth at 30 ppm in the assay on Phytophthora infestans [1] was at least 70%. Also, the pest or weed control at 50 ppm in the assay with Phytophthora infestans [2] and in the assay on Plasmopara viticola was at least 70% throughout.

With `O=C(COc1nccnc1C(F)(F)F)N1CCC(c2nc(C3=NOC(c4c(F)cccc4F)C3)sc2Cl)CC1` (centres unmarked) [Compound 22, 1-(4-(5-chloro-2-(5-(2,6-difluorophenyl)-4,5-dihydroisoxazol-3-yl)thiazol-4-yl)piperidin-1-yl)-2-((3-(trifluoromethyl)pyrazin-2-yl)oxy)ethan-1-one], in the assay on Plasmopara viticola, the pest or weed control at 50 ppm is at least 70%.

For `O=C(COc1nccnc1C(F)(F)F)N1CCC(c2csc(C3=NOC(c4c(F)cccc4F)C3)n2)CC1` (centres unmarked) [Compound 23, 1-(4-(2-(5-(2,6-difluorophenyl)-4,5-dihydroisoxazol-3-yl)thiazol-4-yl)piperidin-1-yl)-2-((3-(trifluoromethyl)pyrazin-2-yl)oxy)ethan-1-one], in the assay on Phytophthora infestans [1], the inhibition of growth at 30 ppm was at least 70%. Besides, the pest or weed control at 50 ppm with Plasmopara viticola was at least 70%.

Turning to `COc1ccnc(OCC(=O)N2CCC(c3nc(C4=NOC(c5c(Cl)cccc5C#N)C4)cs3)CC2)n1` (centres unmarked) [Compound 31, 3-chloro-2-(3-(2-(1-(2-((4-methoxypyrimidin-2-yl)oxy)acetyl)piperidin-4-yl)thiazol-4-yl)-4,5-dihydroisoxazol-5-yl)benzonitrile], the inhibition of growth at 30 ppm in the assay with Phytophthora infestans [1] is at least 70%. Moreover, in the assay on Phytophthora infestans [2], the pest or weed control at 50 ppm is at least 70%.

On to `COc1ccnc(OCC(=O)N2CCC(c3nc(C4=NOC(c5c(Cl)cccc5OS(C)(=O)=O)C4)cs3)CC2)n1` (centres unmarked) [Compound 32, 3-chloro-2-(3-(2-(1-(2-((4-methoxypyrimidin-2-yl)oxy)acetyl)piperidin-4-yl)thiazol-4-yl)-4,5-dihydroisoxazol-5-yl)phenyl methanesulfonate], for which the inhibition of growth at 30 ppm in the assay on Phytophthora infestans [1] is at least 70%. Moreover, the pest or weed control at 50 ppm with Phytophthora infestans [2] was at least 70%.

Consider `COc1ccnc(OCC(=O)N2CCC(c3nc(C4=NOC(c5c(Cl)cccc5Cl)C4)cs3)CC2)n1` (centres unmarked) [Compound 33, 1-(4-(4-(5-(2,6-dichlorophenyl)-4,5-dihydroisoxazol-3-yl)thiazol-2-yl)piperidin-1-yl)-2-((4-methoxypyrimidin-2-yl)oxy)ethan-1-one], for which the inhibition of growth at 30 ppm with Phytophthora infestans [1] is at least 70%. Besides, the pest or weed control at 50 ppm with Phytophthora infestans [2] is at least 70%.

`COc1ccnc(OCC(=O)N2CCC(c3nc(C4=NOC(c5c(F)cccc5Cl)C4)cs3)CC2)n1` (centres unmarked) [Compound 34, 1-(4-(4-(5-(2-chloro-6-fluorophenyl)-4,5-dihydroisoxazol-3-yl)thiazol-2-yl)piperidin-1-yl)-2-((4-methoxypyrimidin-2-yl)oxy)ethan-1-one]: in the assay with Phytophthora infestans [1], the inhibition of growth at 30 ppm was at least 70%. In addition, the pest or weed control at 50 ppm in the assay on Phytophthora infestans [2] is at least 70%.

On to `COc1ccnc(OCC(=O)N2CCC(c3nc(C4=NOC(c5c(F)cccc5F)C4)cs3)CC2)n1` (centres unmarked) [Compound 36, 1-(4-(4-(5-(2,6-difluorophenyl)-4,5-dihydroisoxazol-3-yl)thiazol-2-yl)piperidin-1-yl)-2-((4-methoxypyrimidin-2-yl)oxy)ethan-1-one], for which the inhibition of growth at 30 ppm in the assay with Phytophthora infestans [1] was at least 70%. For the same molecule, the pest or weed control at 50 ppm in the assay on Phytophthora infestans [2] was at least 70%.

Turning to `O=C(COc1ccc(C(F)(F)F)nn1)N1CCC(c2nc(C3=NOC(c4c(Cl)cc(Cl)cc4Cl)C3)cs2)CC1` (centres unmarked) [Compound 37, 1-(4-(4-(5-(2,4,6-trichlorophenyl)-4,5-dihydroisoxazol-3-yl)thiazol-2-yl)piperidin-1-yl)-2-((6-(trifluoromethyl)pyridazin-3-yl)oxy)ethan-1-one], the inhibition of growth at 30 ppm in the assay with Phytophthora infestans [1] was at least 70%. The pest or weed control at 50 ppm in the assay on Phytophthora infestans [2] was at least 70%.

Turning to `O=C(COc1ccc(C(F)(F)F)nn1)N1CCC(c2nc(C3=NOC(c4c(Cl)cccc4Cl)C3)cs2)CC1` (centres unmarked) [Compound 38, 1-(4-(4-(5-(2,6-dichlorophenyl)-4,5-dihydroisoxazol-3-yl)thiazol-2-yl)piperidin-1-yl)-2-((6-(trifluoromethyl)pyridazin-3-yl)oxy)ethan-1-one], the inhibition of growth at 30 ppm with Phytophthora infestans [1] was at least 70%. Moreover, the pest or weed control at 50 ppm in the assay on Phytophthora infestans [2] was at least 70%.

Regarding `O=C(COc1ccc(C(F)(F)F)nn1)N1CCC(c2nc(C3=NOC(c4c(F)cccc4Cl)C3)cs2)CC1` (centres unmarked) [Compound 39, 1-(4-(4-(5-(2-chloro-6-fluorophenyl)-4,5-dihydroisoxazol-3-yl)thiazol-2-yl)piperidin-1-yl)-2-((6-(trifluoromethyl)pyridazin-3-yl)oxy)ethan-1-one], in the assay on Phytophthora infestans [1], the inhibition of growth at 30 ppm was at least 70%. Also, in the assay on Phytophthora infestans [2], the pest or weed control at 50 ppm is at least 70%.

In the case of `N#Cc1cccc(Cl)c1C1CC(c2csc(C3CCN(C(=O)COc4ccc(C(F)(F)F)nn4)CC3)n2)=NO1` (centres unmarked) [Compound 40, 3-chloro-2-(3-(2-(1-(2-((6-(trifluoromethyl)pyridazin-3-yl)oxy)acetyl)piperidin-4-yl)thiazol-4-yl)-4,5-dihydroisoxazol-5-yl)benzonitrile], the inhibition of growth at 30 ppm in the assay on Phytophthora infestans [1] was at least 70%. Moreover, the pest or weed control at 50 ppm in the assay with Phytophthora infestans [2] is at least 70%.

In the case of `CS(=O)(=O)Oc1cccc(Cl)c1C1CC(c2csc(C3CCN(C(=O)COc4ccc(C(F)(F)F)nn4)CC3)n2)=NO1` (centres unmarked) [Compound 41, 3-chloro-2-(3-(2-(1-(2-((6-(trifluoromethyl)pyridazin-3-yl)oxy)acetyl)piperidin-4-yl)thiazol-4-yl)-4,5-dihydroisoxazol-5-yl)phenyl methanesulfonate], the inhibition of growth at 30 ppm in the assay on Phytophthora infestans [1] was at least 70%. For the same molecule, in the assay with Phytophthora infestans [2], the pest or weed control at 50 ppm is at least 70%.

In the case of `O=C(COc1ccc(C(F)(F)F)nn1)N1CCC(c2nc(C3=NOC(c4c(F)cccc4F)C3)cs2)CC1` (centres unmarked) [Compound 42, 1-(4-(4-(5-(2,6-difluorophenyl)-4,5-dihydroisoxazol-3-yl)thiazol-2-yl)piperidin-1-yl)-2-((6-(trifluoromethyl)pyridazin-3-yl)oxy)ethan-1-one], the inhibition of growth at 30 ppm in the assay on Phytophthora infestans [1] was at least 70%. Besides, the pest or weed control at 50 ppm with Phytophthora infestans [2] was at least 70%.

Regarding `O=C(COc1ccc(C(F)(F)F)nn1)N1CCC(c2nc(C3=NOC(c4c(F)cccc4Br)C3)cs2)CC1` (centres unmarked) [Compound 43, 1-(4-(4-(5-(2-bromo-6-fluorophenyl)-4,5-dihydroisoxazol-3-yl)thiazol-2-yl)piperidin-1-yl)-2-((6-(trifluoromethyl)pyridazin-3-yl)oxy)ethan-1-one], the inhibition of growth at 30 ppm with Phytophthora infestans [1] is at least 70%. Besides, the pest or weed control at 50 ppm with Phytophthora infestans [2] is at least 70%.

For the molecule `O=C(COc1nccnc1C(F)(F)F)N1CCC(c2nc(C3OCc4c(F)ccc(F)c4CO3)cs2)CC1` [Compound 64, 1-(4-(4-(6,9-difluoro-1,5-dihydrobenzo[e][1,3]dioxepin-3-yl)thiazol-2-yl)piperidin-1-yl)-2-((3-(trifluoromethyl)pyrazin-2-yl)oxy)ethan-1-one], the inhibition of growth at 30 ppm with Phytophthora infestans [1] was at least 70%. Also, the pest or weed control at 50 ppm in the assay with Phytophthora infestans [2] is at least 70%.

Consider `O=C(COc1nccnc1Cl)N1CCC(c2nc(C3=NOC(c4c(Cl)cc(Cl)cc4Cl)C3)cs2)CC1` (centres unmarked) [Compound 123, 2-((3-chloropyrazin-2-yl)oxy)-1-(4-(4-(5-(2,4,6-trichlorophenyl)-4,5-dihydroisoxazol-3-yl)thiazol-2-yl)piperidin-1-yl)ethan-1-one], for which the pest or weed control at 50 ppm in the assay with Phytophthora infestans [2] and in the assay with Plasmopara viticola was at least 70% throughout.

Regarding `O=C(COc1nccnc1Cl)N1CCC(c2nc(C3=NOC(c4c(F)cccc4Cl)C3)cs2)CC1` (centres unmarked) [Compound 125, 1-(4-(4-(5-(2-chloro-6-fluorophenyl)-4,5-dihydroisoxazol-3-yl)thiazol-2-yl)piperidin-1-yl)-2-((3-chloropyrazin-2-yl)oxy)ethan-1-one], the pest or weed control at 50 ppm in the assay on Phytophthora infestans [2] and with Plasmopara viticola was at least 70% each time.

With `CS(=O)(=O)Oc1cccc(Cl)c1C1CC(c2csc(C3CCN(C(=O)COc4nccnc4Cl)CC3)n2)=NO1` (centres unmarked) [Compound 127, 3-chloro-2-(3-(2-(1-(2-((3-chloropyrazin-2-yl)oxy)acetyl)piperidin-4-yl)thiazol-4-yl)-4,5-dihydroisoxazol-5-yl)phenyl methanesulfonate], the pest or weed control at 50 ppm with Phytophthora infestans [2] and in the assay on Plasmopara viticola was at least 70% each time.

These data come from patent US12471596B2 (priority 2019, dated 2025).
